Data: US8859615B2, “Compounds, compositions and methods for reducing toxicity and treating or preventing diseases” (priority 2008, dated 2014)
Like-named read-outs stand apart in the source and are kept apart here.

Assays:
[1] = test system: CCRF-CEM/VBL100 vinblastine-resistant cells; experiment: In vitro cytotoxicity against vinblastine-resistant CCRF-CEM subline; type: cell-based, human; conditions: for IC50: Homo sapiens, CCRF-CEM; for fold resistance in brackets (IC50 CCRF-CEM/VBL vs CCRF-CEM): Table 3
Method: (§1) The cytotoxicity IC50 of each compound was measured with the XTT assay using the 2,3-bis(2-methoxy-4-nitro-5-sulfophenyl)-5-[(phenylamino)carbonyl]-2H-tetrazolium hydroxide (XTT) microculture method as described in Scudiero et al., Cancer Res., 48:4827 (1988), the contents of which are hereby incorporated by reference in their entirety. The CCK-8 assay is a cell counting kit-8 (CCK-8) tetrazolium assay using a 96-well microplate (Dojindo Molecular Technologies, Inc., Rockville, Md.) (M. Ishiyama et al., Biol. Pharm. Bull. 19: 1518, 1996). Absorbance was measured by Powerwave a XS microplate spectrophotometer. This method described is considered a general method in vitro cytotoxicity studies.
(§2) The data in Tables 2X, 3A-E, 4, 5, and 6 were obtained using the cell counting kit-8 (CCK-8) tetrazolium assay in a 96-well microplate. Five to seven concentrations of each compound in triplicate were used, and the IC50 values were determined by CompuSyn software automation (Chou T C. and Martin N. ComboSyn, Inc., 2006) based on the median-effect equation and plot (Chou T C. J. Theor. Biol. 59:235-276, 1976; Chou T C. Pharmacol. Rev. 58: 621-681, 2006). […] The r value defines the correlation coefficient of the median-effect plot which signifies the conformity to the mass-action law principle (Chou T C. J. Theor. Biol. 59:235-276, 1976; Chou T C. Pharmacol. Rev. 58:621-681, 2006). These parameters were determined by CompuSyn simulation (available at http://www.combosyn.com).
(§3) CCRF-CEM human T-cell acute lymphoblastic leukemia cells and the corresponding vinblastine-resistant cells (CCRF-CEM/VBL100) were cultured at an initial density of 5×10^4 cells per milliliter. The cultured cells were maintained in a 5% CO2-humidified atmosphere at 37° C. in RPMI medium 1640 (GIBCO/BRL) containing penicillin (100 units/mL), streptomycin (100 μg/mL, GIBCO/BRL), and 10% heat-inactivated fetal bovine serum. The cytotoxicity of each Compound of the invention was measured using the 2,3-bis(2-methoxy-4-nitro-5-sulfophenyl)-5-[(phenylamino)carbonyl]-2H-tetrazolium hydroxide (XTT) microculture method as described in Scudiero et al., Cancer Res., 48:4827 (1988), the contents of which are hereby incorporated by reference in their entirety.
(§4) Absorbance was measured by Powerwave XS microplate spectrophotometer.

[2] = test system: CCRF-CEM human T-cell acute lymphoblastic leukemia cells; experiment: In vitro cytotoxicity against CCRF-CEM (XTT / CCK-8 tetrazolium assay, 72 hr); conditions: for IC50: Homo sapiens, CCRF-CEM
Method: as §1, §2, §3, §4

[3] = test system: human lymphoblastic leukemic T-cell growth; experiment: Cytotoxic activity relative to stability during storage at −20° C. in DMSO (Table 10); type: cell-based; conditions: Homo sapiens, CCRF-CEM, 72 h, XTT, 72 hr
From the text: Without wishing to be bound by theory, the oxidized versions may be active metabolites. This theory provides an explanation of the delayed onset of therapeutic effects seen in the figures herein. The oxidized compounds may be active agents that are formed slowly upon metabolic oxidation. […] The active metabolites may explain the biphasic pharmacological properties of panaxytriol or Compound D that have been observed (FIGS. 9B, C, D; FIGS. 11D, E, F, and FIGS. 12D, E). […] Induction of the phase 2 enzymes may slow oxidation of the compounds (Ng et al., Tetrahedron Letters. 49: 7178-7179 (2008)).

leukemic CCRF CEM cells = experiment: Precursor incorporation into DNA, RNA and protein (Table 9); type: cell-based, human
Method: The radioactive tracer studies were carried out as described by Chou T C, et al. Cancer Res. 43: 3074-3079, 1983.

[4] = test system: CCRF-CEM subline resistant to TAXOL; experiment: In vitro cytotoxicity against TAXOL-resistant CCRF-CEM subline; type: cell-based, human; conditions: for IC50: Homo sapiens, CCRF-CEM
Method: as §2, §4

[5] = test system: human mammary carcinoma MX-1 cells; experiment: In vitro drug combination (median-effect / combination index, DRI) against MX-1 cell growth (Tables 5, 5A); type: cell-based; conditions: for IC50: MX-1, 72 hrs
Method: as §2
Efficacy of panaxytriol in combination with Fludelone (an illustrative tubulin-binding anticancer agent) was measured according to procedures described in more detail by Chou et al. (1984) Adv. Enz. Regul., 22:27-55, Chou et al. (1994) Nat'l Cancer Inst., 86:1517-1524, and Chou (2006) Pharmacological Reviews, […]:621-681. Software packages used for data analyses were CalcuSyn for Windows (Chou and Hayball., Multiple-drug dose effect analyzer and manual, Biosoft, Cambridge Place, Cambridge, U.K (1996)) and CompuSyn for Drug Combinations (Chou and Martin, Software for determination of synergism and antagonism and determination of IC50, ED50 and LD50, ComboSyn Inc., Paramus, N.J. (2005)). The entire contents of each of the above references are incorporated by reference in their entireties. […] DRI quantitates synergy as how many fold less of a dose is required to obtain a given level of effect for a combination of drugs versus the same effect for an individual component of the combination.

[6] = 72 h, Table 3D, CCK-8, 72-hr incubation, read-out: IC50 CCRF-CEM/Vinblastine
[7] = Table 3D, CCK-8, 72-hr incubation, read-out: IC50 CCRF-CEM/TAXOL
[8] = 72 h, read-out: IC50 CCRF-CEM, Table 3D, CCK-8, 72-hr incubation
[9] = read-out: IC50 (in μM), cytotoxic potency against cancer cell line growth in vitro, Table 3C, cell line not given
[10] = Table 3E, read-out: IC50 CCRF-CEM/Vinblastine
[11] = Table 3E, read-out: IC50 CCRF-CEM/TAXOL
[12] = read-out: IC50 CCRF-CEM, Table 3E
[13] = Table 5, fold dose reduction allowed in the Panaxytriol + Fludelone combination

C=CC(=O)C#CC#CC[C@@H](O)[C@H](O)CCCCCCC [Compound (B)]
IC50 ([1]; 72 h, read-out: IC50 CCRF ± CEM/VBL): 6.29 ± 1.41 µM | fold resistance in brackets (IC50 CCRF-CEM/VBL vs CCRF-CEM) [1]: 1.40 x | IC50 ([2]; 72 h, read-out: IC50 CCRF-CEM, Table 3, XTT, 72-hour): 4.49 ± 0.41 µM | IC50 ([3]; read-out: IC50 in μM CCRF-CEM, Table 10, Aug. 22, 2003 (Stored), same solution kept at −20° C. in DMSO): 4.78 µM | IC50 ([3]; read-out: IC50 in μM CCRF-CEM, Table 10, Jul. 25, 2003 (Fresh)): 0.72 ± 0.14 µM | IC50 ([3]; read-out: IC50 in μM CCRF-CEM/VBL, Table 10, Aug. 22, 2003 (Stored), same solution kept at −20° C. in DMSO): 5.29 µM | IC50 ([3]; read-out: IC50 in μM CCRF-CEM/VBL, Table 10, Jul. 25, 2003 (Fresh)): 0.95 µM | [3H]-AdR → RNA (% Activation ↑ or Inhibition ↓) (leukemic CCRF CEM cells; 15 μM, 15 min, ↑ (activation)): 30.7 ↑ % | [3H]-dThd → DNA (% Activation ↑ or Inhibition ↓) (leukemic CCRF CEM cells; 15 μM, 15 min, ↑ (activation)): 26.1 ↑ % | [3H]-AdR → RNA (% Activation ↑ or Inhibition ↓) (leukemic CCRF CEM cells; 100 μM, 60 min, ↓ (inhibition)): 82.0 ↓ % | [3H]-dThd → DNA (% Activation ↑ or Inhibition ↓) (leukemic CCRF CEM cells; 100 μM, 60 min, ↓ (inhibition)): 78.2 ↓ % | inhibition at 15 µM (leukemic CCRF CEM cells; Homo sapiens, CCRF-CEM, 15 μM, 15 min, ↓ (inhibition), read-out: [3H] Leu → Protein (% Activation ↑ or Inhibition ↓)): 62.8% | inhibition at 100 µM (leukemic CCRF CEM cells; Homo sapiens, CCRF-CEM, 100 μM, 60 min, ↓ (inhibition), read-out: [3H] Leu → Protein (% Activation ↑ or Inhibition ↓)): 78.2%

C=CC(=O)C#CC#CC[C@H]1OC(C)(C)O[C@@H]1CCCCCCC [Compound (C)]
fold resistance in brackets (IC50 CCRF-CEM/VBL vs CCRF-CEM) [1]: 1.19 x | IC50 ([3]; Table 10, Aug. 22, 2003 (Stored), same solution kept at −20° C. in DMSO, read-out: IC50 in μM CCRF-CEM): 2.68 µM | IC50 ([3]; Table 10, Aug. 22, 2003 (Stored), same solution kept at −20° C. in DMSO, read-out: IC50 in μM CCRF-CEM/VBL): 3.9 µM | IC50 ([3]; Table 10, Jul. 25, 2003 (Fresh), read-out: IC50 in μM CCRF-CEM): 0.404 µM | IC50 ([3]; Table 10, Jul. 25, 2003 (Fresh), read-out: IC50 in μM CCRF-CEM/VBL): 0.7 µM

C=C[C@H](C#CC#CC[C@H]1OC(C)(C)O[C@@H]1CCCCCCC)OC(=O)/C=C/c1ccccc1 [Compound (E)]
IC50 [1, 6]: 106 µM | fold of cross-resistance (CCRF-CEM/Vinblastine vs parent cell line) ([1]; Table 3D, given as x or -fold): 0.17 fold | IC50 [4, 7]: 156 µM | fold of cross-resistance (CCRF-CEM/TAXOL vs parent cell line) ([4]; Table 3D, given as x or -fold): 0.24 fold | anti-cancer activity in the in vitro cytotoxicity assay [2]: active against cancer | IC50 [2, 8]: 642 µM | IC50 [2, 9]: 642 µM

C=C[C@H](C#CC#CC[C@H]1OC(C)(C)O[C@@H]1CCCCCCC)OC(C)=O [Compound (F)]
IC50 [1, 6]: 8.56 µM | IC50 [4, 7]: 7.58 µM | IC50 [2, 8]: 3.88 ± 0.85 µM | IC50 [2, 9]: 3.88 µM

C=CC(C)(O)C#CC#CC[C@H]1OC(C)(C)O[C@@H]1CCCCCCC (some centres unmarked) [Compound (G)]
IC50 [1, 6]: 7.3 µM | IC50 [4, 7]: 6.16 µM | IC50 [2, 8]: 3.77 ± 0.48 µM | IC50 [2, 9]: 3.77 µM

C=C[C@H](C#CC#CC[C@H]1OC(C)(C)O[C@@H]1CCCCCCC)OC [Compound (H)]
IC50 [1, 6]: 26.6 µM | IC50 [4, 7]: 15.1 µM | IC50 [2, 8]: 21.6 µM | IC50 [2, 9]: 21.6 µM

CCCCCCC[C@H]1OC(C)(C)O[C@@H]1CC#CC#C/C=C/CO [Compound (L)]
IC50 [1, 6]: 2.76 µM | IC50 [4, 7]: 2.91 µM | IC50 [2, 8]: 1.92 ± 0.16 µM | IC50 [2, 9]: 1.92 µM

CCCCCCC[C@H]1OC(C)(C)O[C@@H]1Cc1ccc(C=O)cc1 [Compound (N), 4-(((4R,5R)-5-heptyl-2,2-dimethyl-1,3-dioxolan-4-yl)methyl)benzaldehyde]
IC50 [1, 10]: 13.6 µM | IC50 [4, 11]: 19.4 µM | IC50 [2, 12]: 12.6 µM

C=CC(O)c1ccc(C[C@H]2OC(C)(C)O[C@@H]2CCCCCCC)cc1 (stereo partly drawn) [Compound (O), 1-(4-(((4R,5R)-5-heptyl-2,2-dimethyl-1,3-dioxolan-4-yl)methyl)phenyl)prop-2-en-1-ol]
IC50 [1, 10]: 6.52 µM | IC50 [4, 11]: 10.3 µM | IC50 [2, 12]: 5.25 µM

CCCCCCC[C@H]1OC(C)(C)O[C@@H]1Cc1ccc(C(O)CC)cc1 (stereo partly drawn) [Compound (P), 1-(4-(((4R,5R)-5-heptyl-2,2-dimethyl-1,3-dioxolan-4-yl)methyl)phenyl)propan-1-ol]
IC50 [1, 10]: 5.14 µM | IC50 [4, 11]: 11.9 µM | IC50 [2, 12]: 4.18 µM

C/C(=C\c1csc(C)n1)[C@@H]1C/C=C(/C(F)(F)F)C/C=C/[C@H](C)[C@H](O)[C@@H](C)C(=O)C(C)(C)[C@@H](O)CC(=O)O1 [Fludelone]
IC50 ([5]; Table 5, Panaxytriol + Fludelone combination (1.199 + 0.0012), read-out: Dose-effect parameter Dm (IC50) of the component in the combination): 0.0012 µM | IC50 ([5]; Table 5, each drug alone, read-out: Dose-effect parameter Dm (IC50)): 0.0027 µM | Dose-Reduction Index (DRI) at IC50 [5, 13]: 2.27 | Dose-Reduction Index (DRI) at IC75 [5, 13]: 7.02 | Dose-Reduction Index (DRI) at IC90 [5, 13]: 21.69 | Dose-Reduction Index (DRI) at IC95 [5, 13]: 46.73 | dose-reduction index (DRI) ([5]; panaxytriol + Fludelone combination, MX-1 cells): 2.27-46.73

CC[C@]1(O)C[C@@H]2CN(CCc3c([nH]c4ccccc34)[C@@](C(=O)OC)(c3cc4c(cc3OC)N(C)[C@H]3[C@@](O)(C(=O)OC)[C@H](OC(C)=O)[C@]5(CC)C=CCN6CC[C@]43[C@@H]65)C2)C1 [Vinblastine]
IC50 ([1]; 72 h, Table 3A-2, CCK-8, 72-hr exposure, read-out: CCRF-CEM/VBL (IC50 in μM)): 0.669 µM | Fold of resistance (IC50 ratio CCRF-CEM/VBL vs CCRF-CEM) ([1]; Table 3A-2): 608 fold | IC50 ([4]; Table 3A-2, CCK-8, 72-hr exposure, read-out: CCRF-CEM/TAXOL (IC50 in μM)): 0.282 µM | Fold of resistance (IC50 ratio CCRF-CEM/TAXOL vs CCRF-CEM) ([4]; Table 3A-2): 256 fold | IC50 ([2]; 72 h, read-out: CCRF-CEM (IC50 in μM), Table 3A-2, CCK-8, 72-hr exposure): 0.0011 µM
